This note sets out measurements from patent US3965109A, “Certain aryl amino pyridines” (priority 1971, dated 1976).

Read-outs that look alike come from different tables or passages of the source.

For data set [1], the system named is Pseudomonas syringae. Briefly: Antibacterial agar test (B6). Format: cell-based. Particulars: 50 ppm; 5 days.
Data set [2] concerns Megoura viceae. The experiment in a line: Pest toxicity test. The format is in vivo. Particulars: 0.1% by weight; broad bean; 2 days.
In data set [3] the test system is Xanthomonas malvacearum. Briefly: Antibacterial agar test (B3). The format is cell-based. As to conditions: 50 ppm; 5 days. Summed up:
(§1)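 Bacterial growth on nutrient agar containing 50 ppm final test compound (added from an acetone solution or suspension) was scored 5 days after multipoint inoculation, using graded ratings. Plates were dried overnight before inoculation.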

Data set [4] relates to Phaedon cochleariae (mustard beetles). Briefly: Pest toxicity test. Format: in vivo. Particulars: in vivo.
The subject of data set [5] is Corynebacterium michiganense. The experiment in a line: Antibacterial agar test (B2). The format is cell-based. As to conditions: 50 ppm; 5 days. Summed up:
as §1

Data set [6] has as its system Agrobacterium tumifaciens. Briefly: Antibacterial agar test (B1). The format is cell-based. Particulars: 50 ppm; 5 days.
Data set [7] deals with Aedes aegypti (mosquito adults). The experiment in a line: Pest toxicity test. The format is in vivo. As to conditions: 0.01% by weight; plywood; 1 day.
Data set [8] concerns Aphis fabae. Briefly: Pest toxicity test. The format is in vivo. Particulars: 0.1% by weight; broad bean; 2 days.
The subject of data set [9] is Pieris brassicae (cabbage white caterpillars). Briefly: Pest toxicity test. The format is in vivo. As to conditions: 0.1% by weight, 2 days.
For data set [10], the system named is Plasmopara viticola (vine). Briefly: Fungicidal test against foliar disease C (foliage spray plus soil drench). The format is in vivo. Particulars: 10 days.
Data set [11] deals with Lettuce. The experiment in a line: Herbicidal test, pre- and post-emergence. Format: in vivo. Particulars: 10 kg/ha; scale 0 to 3 (complete kill).
Data set [12] concerns Streptomyces scabies. The experiment in a line: Antibacterial agar test (B7). Format: cell-based. Particulars: 50 ppm; 5 days.
Data set [13] deals with Maize. The experiment in a line: Herbicidal test, pre- and post-emergence. Particulars: 10 kg/ha; scale 0 to 3 (complete kill). The format is in vivo.
For data set [14], the system named is Tetranychus telarius (red spider mites, adults). Briefly: Pest toxicity test. Format: in vivo. As to conditions: 0.1% by weight; French bean; 3 days.
Data set [15] relates to Wheat. The experiment in a line: Herbicidal test, pre- and post-emergence. The format is in vivo. Particulars: 10 kg/ha; scale 0 to 3 (complete kill).
In data set [16] the test system is Meloidogyne incognita (nematodes). Briefly: Pest toxicity test. Format: in vivo. As to conditions: 0.01% by weight; water; 1 day.
The subject of data set [17] is Musca domestica (houseflies). The experiment in a line: Pest toxicity test, contact test. Format: in vivo. As to conditions: 0.1% by weight; milk/sugar; 2 days; flies sprayed directly.
Data set [18] relates to Erwinia carotovora. Briefly: Antibacterial agar test (B4). Particulars: 50 ppm; 5 days. Format: cell-based.
In data set [19] the test system is Uncinula necator (vine). Briefly: Fungicidal test against foliar disease D (foliage spray plus soil drench). Format: in vivo. As to conditions: 10 days.
In data set [20] the test system is Tomato. Briefly: Herbicidal test, pre- and post-emergence. The format is in vivo. As to conditions: 10 kg/ha; scale 0 to 3 (complete kill).
For data set [21], the system named is Xanthomonas oryzae. The format is cell-based. Particulars: 50 ppm; 5 days.
In data set [22] the test system is Agriolimax reticulatus (slugs). The experiment in a line: Molluscicidal activity test. The format is in vivo, Agriolimax reticulatus (Mull). As to conditions: pellet with 4% by weight; 6 days; 10°C. Summed up:
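Slugs were starved for 24 hours, then housed two per dish, in duplicate, under high humidity at 10°C. They fed on pellets dried to contain 4% w/w of test compound. Mortality was scored on day 6.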

For data set [23], the system named is Plutella maculipennis (diamond back moth larvae). The experiment in a line: Pest toxicity test. As to conditions: in vivo. The format is in vivo.
Data set [24] deals with Aedes aegypti (mosquito larvae). Briefly: Pest toxicity test. Format: in vivo. As to conditions: 0.01% by weight; water; 1 day.
Data set [25] has as its system Piricularia oryzae (rice). Format: in vivo. Particulars: 7 days.
Data set [26] concerns Puccinia recondita (wheat). Briefly: Fungicidal test against foliar disease A (foliage spray plus soil drench). The format is in vivo. Particulars: 10 days.
The test system of data set [27] is Tetranychus telarius (red spider mites, eggs). The experiment in a line: Pest toxicity test. Format: in vivo. Particulars: 0.1% by weight; French bean; 3 days.
The test system of data set [28] is Venturia inaequalis (apple). The experiment in a line: Fungicidal test against foliar disease G (foliage spray plus soil drench). Format: in vivo. Particulars: 21 days. The method, then:
This Example illustrates the fungicidal properties of compounds used as active ingredients in the compositions of the invention. The compounds were tested against a wide variety of foliar fungal diseases of plants. In the test, a composition comprising an aqueous solution or suspension of the test compound was sprayed on to the foliage or uninfected plants; the soil in which the plants were growing was also drenched with the composition. The compositions used for spraying and drencing contained 100 parts per million (ppm.) of the test compound except where otherwise stated in the table of results below. After spraying and drenching, the plants were then exposed to infection with the diseases it was desired to control, along with control plants not treated with the compound. After a period of days, depending upon the particular disease, the extent of the disease was visually assessed, as a percentage of the disease established upon the control plants which had not been treated with the compound under test, according to the grading scheme below
In Table 2 below the names of the disease is given in the first column, and in the second column is given the time which elapsed between exposing the plants to infection and assessing the amount of disease.

Data set [29] relates to Phytophthora infestans (tomato). The format is in vivo. As to conditions: 50 ppm spray + 200 ppm soil drench; 3 days.
Setting [30] is: 50 ppm spray + 200 ppm soil drench.

Regarding `O=[N+]([O-])c1cc(Cl)cc([N+](=O)[O-])c1Nc1c(Cl)c(F)nc(F)c1Cl` [Compound 29, 3,5-Dichloro-2,6-difluoro-4(4-chloro-2,6-dinitroanilino)pyridine], the “Antibacterial activity grading B6” value in data set [1] is recorded as 3 (0 to 5). The “Mortality grading (kill)” value is 3 (3 represents over 90% kill) in data set [2]; 0 (key: O represents less than 30% kill; 1 represents 30 - 49% kill; 2 represents 60 - 90% kill; 3 represents over 90% kill; C indicates a chemosterilant effect.; A indicates an antifeeding effect.) in [4]; 0 (O represents less than 30% kill) in data set [7]; 3 (3 represents over 90% kill) in data set [8]; 0 (O represents less than 30% kill) in data set [9]; 3 (3 represents over 90% kill) in data set [14]. For the same compound, the “Mortality grading (kill)” value in data set [16] is recorded as 0 (O represents less than 30% kill); in data set [23] it was 0 (key: O represents less than 30% kill; 1 represents 30 - 49% kill; 2 represents 60 - 90% kill; 3 represents over 90% kill; C indicates a chemosterilant effect.; A indicates an antifeeding effect.); in [24], 3 (3 represents over 90% kill). The “Antibacterial activity grading B3” value in [3] is 3 (0 to 5). Besides, in data set [5], the “Antibacterial activity grading B2” value was 3 (0 to 5). Further, the “Antibacterial activity grading B1” value in [6] is reported as 3 (0 to 5). Also, the “Amount of disease grading, disease C (Table 4)” value in [10] (100 ppm spray and drench) is listed as 3 (0 to 5). Moreover, the “Damage to plants, post-emergence” value in data set [11], in data set [13], in data set [15] and in data set [20] was 0 throughout. Also, the “Damage to plants, pre-emergence” value in data set [11] was 3; in data set [13] it was 0; in data set [15], 3; in [20], 3. In data set [12], the “Antibacterial activity grading B7” value is 3 (0 to 5). Besides, the “Mortality grading (kill), contact test” value in data set [17] is listed as 0 (O represents less than 30% kill). Besides, in data set [18], the “Antibacterial activity grading B4” value is recorded as 3 (0 to 5). Also, the “Amount of disease grading, disease D (Table 4)” value in [19] (100 ppm spray and drench) was 3 (0 to 5). In data set [21], the “Antibacterial activity grading B5” value was 3 (0 to 5). In addition, in data set [22], the “% Kill of slugs” value is given as 50%.

With `COc1nc(F)c(Cl)c(Nc2c(F)c(F)c(C#N)c(F)c2F)c1Cl` [Compound 21, 2-Fluoro-3,5-dichloro-6methoxy-4(4-cyano-2,3,5,6-tetrafluoroanilino)pyridine], in data set [1], the “Antibacterial activity grading B6” value is reported as 3 (0 to 5). Also, in data set [25] (100 ppm spray and drench), the “Amount of disease grading, disease E” value is 3 (0 to 5). Besides, the “Mortality grading (kill)” value in data set [2] is 0 (O represents less than 30% kill); in data set [4] it was 0 (key: O represents less than 30% kill; 1 represents 30 - 49% kill; 2 represents 60 - 90% kill; 3 represents over 90% kill; C indicates a chemosterilant effect.; A indicates an antifeeding effect.); in [7] it was 0 (O represents less than 30% kill); in [8], 0 (O represents less than 30% kill); in data set [9] it was 0 (O represents less than 30% kill); in data set [14], 0 (O represents less than 30% kill). Moreover, the “Mortality grading (kill)” value in data set [27] is 0 (O represents less than 30% kill); in [23], 1 (key: O represents less than 30% kill; 1 represents 30 - 49% kill; 2 represents 60 - 90% kill; 3 represents over 90% kill; C indicates a chemosterilant effect.; A indicates an antifeeding effect.); in [24] it was 3 (3 represents over 90% kill). Further, the “Antibacterial activity grading B3” value in [3] is 3 (0 to 5). Further, the “Antibacterial activity grading B2” value in data set [5] was 3 (0 to 5). For the same compound, in data set [6], the “Antibacterial activity grading B1” value is reported as 2 (6 to 25). Moreover, in data set [10] (100 ppm spray and drench), the “Amount of disease grading, disease C” value is 3 (0 to 5). Moreover, the “Antibacterial activity grading B7” value in data set [12] was 3 (0 to 5). Also, the “Amount of disease grading, disease A” value in data set [26] (100 ppm spray and drench) is reported as 3 (0 to 5). In [17], the “Mortality grading (kill), contact test” value is 2 (2 represents 60 - 90% kill). Moreover, the “Antibacterial activity grading B4” value in [18] was 3 (0 to 5). Besides, the “Antibacterial activity grading B5” value in [21] was 2 (6 to 25). For the same compound, in data set [28] (100 ppm spray and drench), the “Amount of disease grading, disease G” value was 3 (0 to 5).

`Fc1nc(F)c(Cl)c(Nc2c(Cl)cccc2Cl)c1Cl` [Compound 3, 3,5-Dichloro-2,6-difluoro-4(2,6-dichloroanilino)pyridine]: the “Amount of disease grading, disease E” value in [25] (setting [30]) is on record as 0 (61 to 100). The “Mortality grading (kill)” value in data set [2] is 0 (O represents less than 30% kill); in [4], 0 (key: O represents less than 30% kill; 1 represents 30 - 49% kill; 2 represents 60 - 90% kill; 3 represents over 90% kill; C indicates a chemosterilant effect.; A indicates an antifeeding effect.); in data set [7] it was 0 (O represents less than 30% kill); in data set [8], 0 (O represents less than 30% kill); in data set [9] it was 0 (O represents less than 30% kill); in data set [14], 0 (O represents less than 30% kill). Also, the “Mortality grading (kill)” value in data set [16] is 2 (2 represents 60 - 90% kill); in data set [27], 2 (2 represents 60 - 90% kill); in data set [23] it was 0 (key: O represents less than 30% kill; 1 represents 30 - 49% kill; 2 represents 60 - 90% kill; 3 represents over 90% kill; C indicates a chemosterilant effect.; A indicates an antifeeding effect.); in [24], 0 (O represents less than 30% kill). Further, the “Amount of disease grading, disease C” value in data set [10] (setting [30]) is 2 (6 to 25). Moreover, the “Amount of disease grading, disease A” value in data set [26] (setting [30]) is 0 (61 to 100). In addition, in [17], the “Mortality grading (kill), contact test” value is on record as 0 (O represents less than 30% kill). Moreover, the “Amount of disease grading, disease D” value in data set [19] (setting [30]) is 3 (0 to 5). Further, the “Amount of disease grading, disease B” value in data set [29] is given as 0 (61 to 100). Also, the “Amount of disease grading, disease G” value in [28] (setting [30]) is on record as 0 (61 to 100).
